Here are results for one molecule from patent US8114843B2, “Photoreactive regulator of protein function and methods of use thereof” (The Regents of the University of California, priority 2005, dated 2012).

Data set [1] relates to cultured hippocampal neurons. Kind of data set: Live/Dead assay after PAL treatment. Type of data set: cell-based. To be noted: 200 μM. The source says: Live/Dead assay. After PAL treatment, hippocampal neurons were processed for the live dead assay (Molecular Probes) according to the manufacturer's instructions. Cells were counted in 4-8 fields for each treatment condition.

The subject of a further data set is Purkinje neurons. The experiment in a line: Loose-patch extracellular recording in cerebellar slices. Type of data set: cell-based, rat. To be noted: 200 μM for 10 minutes; full-field 360 nm light; n=5. The protocol: Brain Slice Preparation. Parasagittal cerebellar slices were prepared using standard techniques approved by the UCLA Animal Care Committee. […] PAL attachment. […] For cerebellar slices, neuronal cell bodies were visualized using an upright microscope with a 40× water immersion lens and equipped with an infrared-DIC enhancement. Loose-patch extracellular recordings were performed using an Axopatch 200B amplifier (Axon Instruments). Electrophysiological recordings were filtered at 1 KHz and digitized at 2-4 KHz. Pipettes were typically 1.4-2.0 MΩ for recordings from PNs and 3.0-3.5 MΩ for interneurons and filled with aCSF. […] All recordings were performed at room temperature. […] Excitation filters were changed using a lambda 10-2 filter changer (Sutter Instruments) controlled via pCLAMP software.

The subject of another data set is basket cells. The description is as above. Type of data set: cell-based, rat. As to conditions: 500 nm light; with AMPA, NMDA and GABAA receptor antagonists; n=6. The protocol: Brain Slice Preparation. Parasagittal cerebellar slices were prepared using standard techniques approved by the UCLA Animal Care Committee. The cerebellum was removed from the cranium of a 14-20 day old Sprague-Dawley rat, mounted on an agar support and sectioned parasagitally using a vibrotome (Leica VT-1000) while submerged in cold (<4° C.) artificial cerebrospinal fluid (aCSF) containing in mM: 119 NaCl, 26 NaHCO3, 11 glucose, 2.5 KCl, 2.5 CaCl2, 1.3 MgCl2, and 1 NaH2PO4 and saturated with 95% O2 and 5% CO2 Following sectioning, the […] slices were stored in 35° C. aCSF for 30 minutes and brought to room temperature for subsequent electrophysiological experiments.
PAL attachment. HEK293 and hippocampal cells were rinsed in extracellular solution containing in mM: 138 NaCl, 1.5 KCl, 1.2 MgCl2, 2.5 CaCl2, 5 HEPES, 10 glucose and incubated at 37° C. in the dark with 200-250 μM PAL for 15 minutes. For slices, AAQ was diluted to 200 μM in aCSF and treatment was performed in the dark at room temperature for 10 minutes.
For cerebellar slices, neuronal cell bodies were visualized using an upright microscope with a 40× water immersion lens and equipped with an infrared-DIC enhancement. Loose-patch extracellular recordings were performed using an Axopatch 200B amplifier (Axon Instruments). Electrophysiological recordings were filtered at 1 KHz and digitized at 2-4 KHz. […]

In the next data set the test system is rat retina. The experiment in a line: AAQ injection into the rat eye (ERG, retinal toxicity). Type of data set: in vivo. The protocol:
Rats were dark-adapted overnight, and the entire procedure was done under very dim red light. Rats were anesthetized and placed in a standard electroretinogram (ERG) setup. Recording electrodes were embedded in contact-like cups, which were mounted onto each eye with a conductive adherent fluid. Reference electrodes were placed in the mouth. A light source emitted brief flashes of white light at various intensities. The electrical response of the retina to each light flash was recorded; three trials per intensity were averaged together. Under normal conditions, the ERG will consist of a small downward deflection (A-wave), which reflects the activity of photoreceptors, and a larger upward deflection (B-wave), which reflects the activity of bipolar cells.

The test system of data set [2] is transient inward current (voltage-gated Na+ and Ca2+ currents) in neurons. The experiment in a line: Voltage-clamp of transient inward current in PAL-treated neurons. It counts as cell-based, rat. As to conditions: Cs+ in the patch pipette. The protocol:
Electrophysiological recording. Recordings from HEK293 and hippocampal neurons were made in the whole-cell patch clamp configuration using a PC-501A amplifier (Warner Instruments). Pulse protocols and measurements were carried out with pCLAMP and a Digidata 1322 interface (Axon Instruments). For voltage-clamp experiment, cells were held at −70 mV. Data was recorded at 20 kHz and filtered at 2 kHz. […]

Each structure is given as a SMILES string.

For the molecule `C=CC(=O)Nc1ccc(/N=N/c2ccc(NC(=O)C[N+](CC)(CC)CC)cc2)cc1` [AAQ], in data set [1] (15 min), the death of neurons is around 10%. For the same molecule, the loss of neurons in data set [1] (60 min) was around 15%. The “increase in firing frequency” value in the data set with Purkinje neurons is 42±12%. The “enhancement of firing frequency” value with basket cells was determined as 324±160%. The “toxic consequences on rat retina (ERG)” value in the data set on rat retina (7 days post injection) was “without toxic consequences”. In addition, in the data set on rat retina (rat eye), the “effects on retinal neurons after injection into the vitreous humor” value is on record as “no detectable deleterious effects”. Besides, the “light-sensitivity of transient inward current” value in data set [2] is “does not become light-sensitive”.
